Paper PMC6112376, “Comprehensive Analyses and Prioritization of Tox21 10K Chemicals Affecting Mitochondrial Function by in-Depth Mechanistic Studies” (Environmental Health Perspectives, 2018)
Where two headings read alike, the source gives them in different places.

Experiments:
[1] = tested on: Caenorhabditis elegans strain PE255; conditions: in vivo
[2] = tested on: HepG2 cells; assay: Oxygen consumption, Seahorse XF24 analyzer; assay type: cell-based, human
[3] = tested on: Caenorhabditis elegans strain PE255; assay: In vivo C. elegans ATP status assay
[4] = tested on: HepG2 cells; conditions: read-out: MMP assays IC50 (µM) qHTS-HepG2; cited from earlier work
[5] = tested on: isolated rat liver mitochondria; assay: Oxygen consumption, Clark-type oxygen electrode; assay type: biochemical
[6] = tested on: HepG2 cells; assay: ROS-Glo hydrogen peroxide (ROS) assay; assay type: cell-based, human; conditions: for EC50: read-out: ROS (HepG2) EC50
[7] = tested on: HepG2 cells; assay: Intracellular ATP content (cell viability) assay; assay type: cell-based, human
[8] = tested on: rat primary hepatocytes
[9] = tested on: Caenorhabditis elegans (Bristol N2); conditions: in vivo
[10] = tested on: HeLa cells expressing YFP-Parkin; assay: Parkin translocation assay; assay type: cell-based, human
[11] = tested on: Nrf2/ARE (ARE-bla HepG2 cells); assay: ARE β-lactamase reporter gene assay; assay type: cell-based, human
[12] = tested on: Caenorhabditis elegans (Bristol N2); assay: C. elegans larval development and growth assay
[13] = tested on: HepG2 cells; assay: cells; conditions: Homo sapiens
[14] = tested on: rat primary hepatocytes; assay: MMP assay in rat primary hepatocytes
[15] = tested on: HepG2 cells
[16] = tested on: hNSC; assay: MMP assay in human neural stem cells (hNSC); assay type: cell-based
[17] = tested on: p53 (p53-bla HCT-116 cells); assay: p53 β-lactamase reporter gene assay; assay type: cell-based, human

## CCOCn1c(-c2ccc(Cl)cc2)c(C#N)c(Br)c1C(F)(F)F [Chlorfenapyr]
[1]; PE255 [sur-5::luc+::gfp, rol-6(su1006)], Caenorhabditis elegans
  inhibitory effect at (concentration) on ATP content in the C. elegans assay: 0.25 µM
[2]
  effect on oxygen consumption rate, Seahorse (in words): effects similar to that of FCCP
[3]; Caenorhabditis elegans, read-out: LEC LUM: lowest effect concentration for luminescence, a measure of nematode ATP content
  minimal effective concentration: 0.25 µM
[4]
  IC50: 0.07 ± 0.04 µM
[5]
  Potential Mechanism: Uncoupler at low concentrations (0.16-20 µM), and Uncoupler + inhibitor at high concentration (100 µM)
  effect on mitochondrial respiration (in words): effects similar to those of FCCP
  uncoupler effect at (concentration) in the oxygen consumption assay: 0.16 µM
[5]; 0.032 µM
  I-ADP, % of control (O2 consumption rate): 99 (43.1) % of control
  I-sub, % of control (O2 consumption rate): 116 (15.2) % of control
  II-ADP, % of control (O2 consumption rate): 99 (67.2) % of control
  II-sub, % of control (O2 consumption rate): 108 (22.5) % of control
[5]; 0.16 µM
  I-ADP, % of control (O2 consumption rate): 96 (41.8) % of control
  I-sub, % of control (O2 consumption rate): 131 (17.1) % of control
  II-ADP, % of control (O2 consumption rate): 112 (75.7) % of control
  II-sub, % of control (O2 consumption rate): 119 (24.9) % of control
[5]; 0.8 µM
  I-ADP, % of control (O2 consumption rate): 120 (52.1) % of control
  I-sub, % of control (O2 consumption rate): 242 (31.7) % of control
  II-ADP, % of control (O2 consumption rate): 106 (71.8) % of control
  II-sub, % of control (O2 consumption rate): 180 (37.6) % of control
[5]; 4 µM
  I-ADP, % of control (O2 consumption rate): 177 (76.8) % of control
  I-sub, % of control (O2 consumption rate): 544 (71.3) % of control
  II-ADP, % of control (O2 consumption rate): 124 (84.2) % of control
  II-sub, % of control (O2 consumption rate): 359 (75.1) % of control
[5]; 20 µM
  I-ADP, % of control (O2 consumption rate): 91 (39.4) % of control
  I-sub, % of control (O2 consumption rate): 324 (42.4) % of control
  II-ADP, % of control (O2 consumption rate): 80 (54.0) % of control
  II-sub, % of control (O2 consumption rate): 281 (58.7) % of control
[5]; 100 µM
  I-ADP, % of control (O2 consumption rate): 54 (28.6) % of control
  I-sub, % of control (O2 consumption rate): 277 (37.3) % of control
  II-ADP, % of control (O2 consumption rate): 35 (23.6) % of control
  II-sub, % of control (O2 consumption rate): 139 (30.2) % of control
[6]; Homo sapiens, HepG2, 2 h
  EC50: 1930 nM
[7]; Homo sapiens, HepG2, 40 h, read-out: ATP (HepG2, galactose) IC50
  IC50: 7010 nM
[7]; Homo sapiens, HepG2, 40 h, read-out: ATP (HepG2, glucose) IC50
  IC50: 6410 nM
[8]
  MMP assays efficacy (%) Rat Hepatocytes: -109±23%
  Rat hepatocytes (efficacy) (MMP): 0.34±0.11 ( −90.8±10.1 ) %
[9]; Bristol N2 (wild type), Caenorhabditis elegans
  inhibitory effect at (concentration) on larval growth in the C. elegans assay: 0.05 µM
[10]
  Parkin recruitment: Active
[10]; 3 h
  Parkin translocation into mitochondria (in words): patterns similar to antimycin A and FCCP
[11]; 16 h incubation, mean±SD of three experiments
  ARE (HepG2) EC50: Inactive
[12]; 0.5 µM
  larval growth effect at 0.5μM: severe larval growth arrest
[12]; Caenorhabditis elegans, read-out: LEC EXT: lowest effect concentration for extinction, a measure of nematode size
  minimal effective concentration: 0.05 µM
[13]; HepG2, 1 h, read-out: HepG2 IC50 Galactose (MMP)
  IC50: 1850 nM
[13]; HepG2, 1 h, read-out: HepG2 IC50 Glucose (MMP)
  IC50: 1670 nM
[13]; HepG2, read-out: IC50 in HepG2 cells (MMP, tier-one retest)
  IC50: 40 nM
[13]; HepG2, read-out: MMP assays efficacy (%) HepG2
  Emax: 109%
[14]; Rattus norvegicus, Hepatocyte, 1 h, read-out: IC50 in rat primary hepatocytes (MMP, tier-one retest)
  IC50: 70 nM
[14]; Rattus norvegicus, Hepatocyte, 1 h, read-out: Rat hepatocytes IC50 (MMP)
  IC50: 340 nM

## N#CC(C#N)=NNc1ccc(OC(F)(F)F)cc1 [FCCP, carbonyl cyamide 4-(trifluoromethoxy)phenylhydrazone, reference compound]
[15]
  HepG2 (efficacy) Galactose (MMP): 1.12±0.33 ( −94.6±1.13 ) %
  HepG2 (efficacy) Glucose (MMP): 1.05±0.38 ( −95.8±2.94 ) %
[15]; read-out: HepG2 IC50 Galactose (MMP)
  IC50: 1120 nM
[15]; read-out: HepG2 IC50 Glucose (MMP)
  IC50: 1050 nM
[1]
  LEC (lowest effect concentration), ATP assay: < 10 µM
[2]
  Activity in oxygen consumption: Uncoupler+inhibitor
[3]; in vivo
  LEC LUM: lowest effect concentration for luminescence, a measure of nematode ATP content: 5 µM
[5]
  Potential Mechanism: Uncoupler at lower concentrations (0.032-0.16 µM), and Uncoupler + inhibitor at high concentrations (0.8 - 100 µM)
  concentration at which RCR began to decrease: 32 nM
  concentration at which RCR reached unity (complete uncoupling): 4 µM
  glutamate/malate-driven state 4 respiration, maximal increase over the baseline level: approximately 4 fold
  succinate-driven state 4 respiration, maximal response over the baseline level: 2.6 fold
  uncoupler effect at (concentration) in the oxygen consumption assay: 0.032 µM
[5]; 0.0064 µM
  I-ADP, % of control (O2 consumption rate): 94 (46.6) % of control
  I-sub, % of control (O2 consumption rate): 108 (14.9) % of control
  II-ADP, % of control (O2 consumption rate): 96 (85.4) % of control
  II-sub, % of control (O2 consumption rate): 90 (24.4) % of control
[5]; 0.032 µM
  I-ADP, % of control (O2 consumption rate): 100 (49.4) % of control
  I-sub, % of control (O2 consumption rate): 131 (18.2) % of control
  II-ADP, % of control (O2 consumption rate): 96 (85.4) % of control
  II-sub, % of control (O2 consumption rate): 126 (34.2) % of control
[5]; 0.16 µM
  I-ADP, % of control (O2 consumption rate): 115 (56.7) % of control
  I-sub, % of control (O2 consumption rate): 251 (34.8) % of control
  II-ADP, % of control (O2 consumption rate): 97 (86.6) % of control
  II-sub, % of control (O2 consumption rate): 260 (70.2) % of control
[5]; 0.8 µM
  I-ADP, % of control (O2 consumption rate): 125 (61.6) % of control
  I-sub, % of control (O2 consumption rate): 386 (53.5) % of control
  II-ADP, % of control (O2 consumption rate): 67 (59.7) % of control
  II-sub, % of control (O2 consumption rate): 247 (66.9) % of control
[5]; 4 µM
  I-ADP, % of control (O2 consumption rate): 74 (36.5) % of control
  I-sub, % of control (O2 consumption rate): 264 (36.5) % of control
  II-ADP, % of control (O2 consumption rate): 44 (39.6) % of control
  II-sub, % of control (O2 consumption rate): 189 (51.0) % of control
[5]; 20 µM
  I-ADP, % of control (O2 consumption rate): 73 (36.0) % of control
  I-sub, % of control (O2 consumption rate): 278 (38.5) % of control
  II-ADP, % of control (O2 consumption rate): 39 (34.6) % of control
  II-sub, % of control (O2 consumption rate): 165 (44.6) % of control
[5]; 100 µM
  I-ADP, % of control (O2 consumption rate): 86 (39.1) % of control
  I-sub, % of control (O2 consumption rate): 263 (40.0) % of control
  II-ADP, % of control (O2 consumption rate): 38 (27.2) % of control
  II-sub, % of control (O2 consumption rate): 98 (30.8) % of control
[6]
  ROS (HepG2) (efficacy): 2.49±0.45 ( 35.9±5.66 ) %
  EC50: 2490 nM
[7]
  ATP (HepG2, galactose) (efficacy): 4.25±0.97 ( −91.9±3.75 ) %
  ATP (HepG2, glucose) (efficacy): 2.90±0.72 ( −90.1±9.46 ) %
[7]; read-out: ATP (HepG2, galactose) IC50
  IC50: 4250 nM
[7]; read-out: ATP (HepG2, glucose) IC50
  IC50: 2900 nM
[16]
  hNSC (efficacy) (MMP): 0.27±0.08 ( −94.2±2.36 ) %
[16]; read-out: hNSC IC50 (MMP)
  IC50: 270 nM
[8]
  Rat hepatocytes (efficacy) (MMP): 0.35±0.06 ( −95.4±4.65 ) %
[17]
  p53 (HCT-116) EC50: Inactive
[9]
  LEC (lowest effect concentration), larval growth assay: < 10 µM
[10]
  Parkin recruitment: Active
  Parkin translocation into mitochondria (in words): significantly increased Parkin translocation into mitochondria
[11]
  ARE (HepG2) EC50: Inactive
[12]; in vivo
  LEC EXT: lowest effect concentration for extinction, a measure of nematode size: 2.5 µM
[14]; read-out: Rat hepatocytes IC50 (MMP)
  IC50: 350 nM
